Reference: US4198431A, “Alkyl N-(3-trifluoromethylphenyl)-anthranilate” (Hokuriku Pharmaceutical Co., Ltd., priority 1978, dated 1980)
Read-outs that look alike come from different tables or passages of the source.

How the values were obtained:
carrageenin edema [1] = assay: Carrageenin edema-preventing effect of ointment, comparison with Bufexamac (Table 3); assay type: in vivo, rat (Wistar, male); conditions: ointment 50 mg applied 3, 2 and 1 hours before carrageenin; for swelling (paw volume increase), 1 hr: control 48%; for swelling (paw volume increase), 2 hr: control 90%, ***p 0.02; for swelling (paw volume increase), 3 hr: control 95%, **p 0.05; for swelling (paw volume increase), 4 hr: control 91%; for swelling (paw volume increase), 5 hr: control 88%
Experimental: The butyl ester of the invention and Bufexamac were further compared in ointment form with respect to the edema-preventing effect thereof. Using eight (8) Wistar male rats, weighing 120 to 140 g., as one grouping, 50 mg. each of the test ointments was applied onto the sole of rear paws 3, 2 and 1 hours before an agent which induced inflammation was administered, after the paw volume at one side was measured. Carrageenin (1%: 0.1 ml.) was subcutaneously administered as the inflammation-inducingagent. Thereafter, the paw volume was again measured every hour over a period of five (5) hours. An edema-preventing rate was determined from the volume prior to administration of the inflammation-inducing agent.

carrageenin edema [2] = assay: Carrageenin edema-preventing effect, 5% ointment (Table 2); assay type: in vivo, rat (Wistar, female); conditions: for swelling percent (rate of volume increase), 1 hr / preventing rate (rate of edema prevention), 1 hr / swelling percent (rate of volume increase), 2 hr / preventing rate (rate of edema prevention), 2 hr / swelling percent (rate of volume increase), 3 hr / preventing rate (rate of edema prevention), 3 hr / swelling percent (rate of volume increase), 4 hr / preventing rate (rate of edema prevention), 4 hr / swelling percent (rate of volume increase), 5 hr / preventing rate (rate of edema prevention), 5 hr: 5% ointment, 50 mg/rat; for swelling percent (rate of volume increase), 1 hr / swelling percent (rate of volume increase), 2 hr / swelling percent (rate of volume increase), 3 hr / swelling percent (rate of volume increase), 4 hr / swelling percent (rate of volume increase), 5 hr: sole of rear paws; for swelling percent (rate of volume increase), 1 hr: control 37.1%; for preventing rate (rate of edema prevention), 1 hr / preventing rate (rate of edema prevention), 2 hr / preventing rate (rate of edema prevention), 3 hr / preventing rate (rate of edema prevention), 4 hr / preventing rate (rate of edema prevention), 5 hr: calculated in contrast to control; for swelling percent (rate of volume increase), 2 hr: control 74.4%; for swelling percent (rate of volume increase), 3 hr: control 83.9%; for swelling percent (rate of volume increase), 4 hr: control 83.3%; for swelling percent (rate of volume increase), 5 hr: control 80.8%
Experimental: Next, the carrageenin edema-preventing effect [E. Yamazaki, et al., Folia Pharmacologica Japonica, vol. 63, page 302 (1967)] was examined using an ointment containing a five-percent(5%) concentration of active ingredient. Using ten (10) Wistar female rats as one grouping, each test compound was applied at the rate of fifty (50) mg/rat onto the sole of the rear paws […] (30) minutes. After carrageenin was subcutaneously administered (1% carrageenin: 0.1 ml/rat) at the ointment-administered area, the volume was measured over a period of five (5) hours, during which a definite amount (50 mg/rat) of each test compound was administered every hour over a period of four (4) hours after the first measurement of the paw volume. The edema-preventing effect was thus determined in contrast to known compounds. In Table 2 following, the swelling percent (rate of volume increase) is given. The figures in parenthesis indicate the rate of edema prevention which was calculated in contrast to control. In control, carrageenin alone was administered.

[3] = Acute toxicity (LD50) after oral administration; assay type: in vivo; conditions: mouse, in vivo
Description: (§1) Using ddY type male mice, acute toxicity (LD50) was examined after oral administration of the methyl, ethyl and butyl esters, respectively.
(§2) In a similar manner, LD50 was examined with regard to the C5 -C8 higher alkyl esters.

ddY type male mice = assay: Acute toxicity (LD50) after oral administration; assay type: in vivo; conditions: oral, mice; comparison with methyl or ethyl ester
Description: as §1, §2

[4] = oral, ddY type male mice, 95% confidence limit in parentheses, read-out: LD50 (95% Confidence Limit)

| Compound | preventing rate (edema-preventing rate), 1 hr (carrageenin edema [1]) [%] | swelling (paw volume increase), 1 hr (carrageenin edema [1]) [%] | preventing rate (edema-preventing rate), 2 hr (carrageenin edema [1]) [%] | swelling (paw volume increase), 2 hr (carrageenin edema [1]) [%] | preventing rate (edema-preventing rate), 3 hr (carrageenin edema [1]) [%] | swelling (paw volume increase), 3 hr (carrageenin edema [1]) [%] | preventing rate (edema-preventing rate), 4 hr (carrageenin edema [1]) [%] | swelling (paw volume increase), 4 hr (carrageenin edema [1]) [%] | preventing rate (edema-preventing rate), 5 hr (carrageenin edema [1]) [%] | swelling (paw volume increase), 5 hr (carrageenin edema [1]) [%] | swelling percent (rate of volume increase), 1 hr (carrageenin edema [2]) [%] | preventing rate (rate of edema prevention), 1 hr (carrageenin edema [2]) [%] | swelling percent (rate of volume increase), 2 hr (carrageenin edema [2]) [%] | preventing rate (rate of edema prevention), 2 hr (carrageenin edema [2]) [%] | swelling percent (rate of volume increase), 3 hr (carrageenin edema [2]) [%] | preventing rate (rate of edema prevention), 3 hr (carrageenin edema [2]) [%] | swelling percent (rate of volume increase), 4 hr (carrageenin edema [2]) [%] | preventing rate (rate of edema prevention), 4 hr (carrageenin edema [2]) [%] | swelling percent (rate of volume increase), 5 hr (carrageenin edema [2]) [%] | LD50 [3, 4] [mg/kg] | further results |
| --- | --- | --- | --- | --- | --- | --- | --- | --- | --- | --- | --- | --- | --- | --- | --- | --- | --- | --- | --- | --- | --- |
| CCCCOc1ccc(CC(=O)NO)cc1 [Bufexamac, reference compound] | 10.4 | 43 | 18.9 | 73 | 18.9 | 76 | 16.5 | 76 | 17.2 | 72 |  |  |  |  |  |  |  |  |  |  |  |
| CCCCOC(=O)c1ccccc1Nc1cccc(C(F)(F)F)c1 [Compound of Invention, n-Butyl N-(3-trifluoromethylphenyl)anthranilate] | 10.4 | 43 | 30 | 63 | 28.4 | 68 | 24.2 | 69 | 22.7 | 68 | 23.5 | 36.7 | 47.3 | 36.4 | 54.8 | 34.7 | 55.5 | 33.4 | 50.0 | 3100 | preventing rate (rate of edema prevention), 5 hr (carrageenin edema [2]): 38.1%; edema-preventing effect as compared to the known compound (carrageenin edema [2]; versus N-(3-trifluoromethylphenyl)anthranilic acid, Table 2): improved edema-preventing effect; LD50 relative to that of the corresponding methyl or ethyl ester (ddY type male mice): 1/2 |
| CCCCCCCCOC(=O)c1ccccc1Nc1cccc(C(F)(F)F)c1 [Example 12] |  |  |  |  |  |  |  |  |  |  |  |  |  |  |  |  |  |  |  |  | LD50 ([3]; po, n-octyl ester, examined in a similar manner, read-out: LD50): ~5000 mg/kg |
| COC(=O)c1ccccc1Nc1cccc(C(F)(F)F)c1 [I, Methyl N-(3-trifluoromethylphenyl)anthranilate, reference compound] |  |  |  |  |  |  |  |  |  |  |  |  |  |  |  |  |  |  |  | 1620 |  |
| CCOC(=O)c1ccccc1Nc1cccc(C(F)(F)F)c1 [II, Ethyl N-(3-trifluoromethylphenyl)anthranilate, reference compound] |  |  |  |  |  |  |  |  |  |  |  |  |  |  |  |  |  |  |  | 1820 |  |
| O=C(O)c1ccccc1Nc1cccc(C(F)(F)F)c1 [N-(3-trifluoromethylphenyl)anthranilic acid, reference compound] |  |  |  |  |  |  |  |  |  |  | 28.4 | 23.5 | 61.8 | 16.9 | 62.3 | 25.8 | 61.4 | 26.3 | 61.2 |  | preventing rate (rate of edema prevention), 5 hr (carrageenin edema [2]): 24.2% |
